From ChEMBL document CHEMBL1150853, “A new dehydrogeranylgeraniol antioxidant from Saururus cernuus that inhibits intracellular reactive oxygen species (ROS)-catalyzed oxidation within HL-60 cells” (J Nat Prod, 2001) come the findings set out here.

For data set [1], the system named is HL-60. Put plainly: Antioxidant activity in phorbol 12-myristate 13-acetate-stimulated human HL60 cells assessed as inhibition of exogenous hydrogen peroxide-catalyzed oxidation of 2',7'-dichlorodihydrofluorescein diacetate at 5 ug/mL pretreated 30 mins before PMA challenge by flow cytometry. The class given is functional. In general terms: In flow cytometry, cells or beads pass a laser one at a time.

In data set [2] the test system is Colletotrichum gloeosporioides. The experiment in a line: Antifungal activity against Colletotrichum gloeosporioides at 100 nmol by 2D-TLC bioautography assay. The class given is functional, organism-based.
Data set [3] concerns Radical scavenging activity. Put plainly: Antioxidant activity assessed as DPPH radical scavenging activity after 30 mins by modified 2D TLC autographic assay. The data set is classed as functional. (In general: DPPH is a stable violet radical that fades when it is reduced.)
Data set [4] has as its system HL-60. The experiment in a line: Cytotoxicity against human HL60 cells at 5 ug/mL after 4 hrs by XTT assay. The data set is classed as cell-based. The conditions noted are these: hl-60, 4 h. (In general: Formazan colour is commonly taken as a measure of viable cells.)
For a further data set, the system named is Colletotrichum acutatum. Put plainly: Antifungal activity against Colletotrichum acutatum at 100 nmol by 2D-TLC bioautography assay. The data set is classed as functional, organism-based.
Data set [5] deals with HL-60. Put plainly: Antioxidant activity in human HL60 cells assessed as inhibition of endogenous hydrogen peroxide-catalyzed oxidation of 2',7'-dichlorodihydrofluorescein diacetate at 5 ug/mL by flow cytometry. The class given is functional.
In a further data set the test system is Colletotrichum fragariae. The experiment in a line: Antifungal activity against Colletotrichum fragariae at 100 nmol by 2D-TLC bioautography assay. The data set is classed as functional, organism-based.
The subject of data set [6] is HL-60. The experiment in a line: Antioxidant activity in phorbol 12-myristate 13-acetate-stimulated human HL60 cells assessed as inhibition of exogenous hydrogen peroxide-catalyzed oxidation of 2',7'-dichlorodihydrofluorescein diacetate at 50 ug/mL pretreated 30 mins before PMA challenge by flow cytometry. The class given is functional, cell-based.
The subject of data set [7] is HL-60. Put plainly: Antioxidant activity in human HL60 cells assessed as inhibition of endogenous hydrogen peroxide-catalyzed oxidation of 2',7'-dichlorodihydrofluorescein diacetate at 50 ug/mL by flow cytometry. The class given is functional, cell-based.

Active and inactive are the calls of the source. The rule behind the calls is not given here.

What is called inhibition is the share of the control response that was lost under treatment. Take `CC(C)=C/C=C/C(C)=C/CC/C(C)=C/CC/C(C)=C/CO`: the inhibition at 5 µg/mL in the data set with HL-60 [1] came out at 28%; with HL-60 [5], 8%. Further, the outcome (in data set [2]; in [3]; in the data set with Colletotrichum acutatum; in the data set on Colletotrichum fragariae) was Active. In the data set on HL-60 [4], the Activity entry is recorded as “Non-toxic”.
Turning to VITAMIN E, the inhibition with HL-60 [6] is 32.4%. Moreover, in the data set on HL-60 [7], the inhibition entry was “inactive”.
